Measurements from patent publication US20090191193A1, “Aryl Vinyl Sulfides, Sulfones, Sulfoxides and Sulfonamides, Derivatives Thereof and Therapeutic Uses Thereof” (TEMPLE UNIVERSITY-OF THE COMMONWEALTH SYSTEM OF HIGHER …, priority 2006, published 2009).

Assays:
DU145 (prostate cancer) = assay: Effect on tumor cell lines, viable cell count by trypan blue exclusion (Latham et al.): DU145; assay type: cell-based; conditions: DU145 prostate cancer cells, viable cell count 96 hours after treatment
Protocol: (§1) The effect of the compounds of the invention on tumor cells was determined by the assay described by Latham et al., Oncogene 12:827-837 (1996). Tumor cells DU145 (prostate cancer), K562 (chronic myelogenous leukaemia), BT20 (breast carcinoma), H157 (non small cell lung carcinoma), or DLD1 (colon carcinoma) were plated in 6-well dishes at a cell density of 1.0×10^5 cells per 35-mm^2 well. […] The total number of viable cells was determined 96 hours later by trypsinizing the wells and counting the number of viable cells, as determined by trypan blue exclusion, using a hemacytometer. Normal HFL cells were treated with the same compounds under the same conditions of concentration and time.

[1] = tested on: K562 (chronic myelogenous leukaemia); assay: Effect on tumor cell lines, viable cell count by trypan blue exclusion (Latham et al.): K562; assay type: cell-based; conditions: K562 chronic myelogenous leukaemia cells, viable cell count 96 hours after treatment
Protocol: as §1

Row | SMILES | IC50 (DU145 (prostate cancer); Homo sapiens, DU-145, 96 h) | melting point | further results
1 | COc1ccc(CS(=O)(=O)/C(C#N)=C/c2c(OC)cc(OC)cc2OC)cc1 [Example 1] | 25 µM | 178 to 180 °C | 
2 | COc1ccc(CS(=O)(=O)/C(C#N)=C/c2ccc(F)cc2F)cc1 [Example 2] | 100 µM | 138 to 140 °C | 
3 | N#C/C(=C\c1ccc(F)cc1F)S(=O)(=O)Cc1ccc(Br)cc1 [Example 4] |  | 146 to 148 °C | 
4 | COc1ccc(CS(=O)(=O)/C(C#N)=C/c2ccc(N)cc2)cc1 [Example 5] | 75 µM | 140 to 142 °C | 
5 | COc1ccc(CS(=O)(=O)/C(C#N)=C/c2ccc(F)c(N)c2)cc1 [Example 6] |  | 146 to 148 °C | 
6 | COc1ccc(CS(=O)(=O)/C(C#N)=C/c2ccc(F)cc2)cc1 [Example 7] | 100 µM | 171 to 173 °C | 
7 | COc1ccc(CS(=O)(=O)/C(C#N)=C/c2c(OC)cccc2OC)cc1 [Example 8] | 75 µM | 108 to 110 °C | 
8 | COc1ccc(CS(=O)(=O)/C(C#N)=C/c2ccccc2OC)cc1 [Example 9] |  | 143 to 145 °C | 
9 | COc1ccc(CS(=O)(=O)/C(C#N)=C/c2ccoc2)cc1 [Example 12] |  | 150 to 153 °C | 
10 | COc1ccc(CS(=O)(=O)/C(C#N)=C/c2ccsc2)cc1 [Example 13] |  | 142 to 144 °C | 
11 | N#C/C(=C\c1ccccc1OC(F)F)S(=O)(=O)Cc1ccc(Br)cc1 [Example 14] |  | 204 to 206 °C | 
12 | COc1ccc(CS(=O)(=O)/C(C#N)=C/c2ccc(F)cc2Cl)cc1 [Example 15] | 25 µM | 138 to 140 °C | 
13 | COc1ccc(CS(=O)(=O)/C(C#N)=C/c2ccc(C#N)cc2F)cc1 [Example 17] |  | 112 to 114 °C | 
14 | COc1ccc(CS(=O)(=O)/C(C#N)=C/c2ccc3oc(=O)[nH]c3c2)cc1 [Example 22] | 10 µM | 210 to 212 °C | 
15 | COc1ccc(CS(=O)(=O)/C(C#N)=C/c2ccc3[nH]c(=O)oc3c2)cc1 [Example 23, (E)-2-[(4-methoxyphenyl)methanesulfonyl]-3-(2-benzoxazolon-6-yl)acrylonitrile] | 50 µM | 208 to 210 °C | 
16 | N#C/C(=C\c1ccc(O)c(O)c1)S(=O)(=O)Cc1ccc(Cl)cc1 [Example 24] | 10 µM | 178 to 180 °C | 
17 | COc1ccc(CS(=O)(=O)/C(C#N)=C/c2ccc(O)c(O)c2)cc1 [Example 25] | 10 µM | 144 to 146 °C | 
18 | COc1ccc(CS(=O)(=O)/C(C#N)=C/c2ccc(OC)c(OC)c2)cc1 [Example 26] |  | 156 to 158 °C | 
19 | COc1ccc(CS(=O)(=O)/C(C#N)=C/c2ccc3c(c2)OCO3)cc1 [Example 27, (E)-2-[(4-methoxyphenyl)methanesulfonyl]-3-(1,3-benzodioxole-5-yl)acrylonitrile] | 100 µM | 186 to 188 °C | 
20 | COc1ccc(CS(=O)(=O)/C(C#N)=C/c2ccc(O)c(O)c2)cc1OC [Example 28] |  | 196 to 198 °C | 

Row | SMILES | IC50 (DU145 (prostate cancer); Homo sapiens, DU-145, 96 h) | melting point | further results
21 | COc1ccc(CS(=O)(=O)/C(C#N)=C/c2ccc3[nH]c(=O)oc3c2)cc1OC [Example 29] | 100 µM |  | 
22 | COc1ccc(CS(=O)(=O)/C(C#N)=C/c2ccc3oc(=O)[nH]c3c2)cc1OC [Example 30] | 100 µM | 174 to 176 °C | 
23 | COc1ccc(CS(=O)(=O)/C(C#N)=C/c2c(F)c(F)c(F)c(F)c2F)cc1OC [Example 32] | 10 µM |  | 
24 | N#C/C(=C\c1c(F)c(F)c(F)c(F)c1F)S(=O)(=O)Cc1ccc(F)cc1 [Example 33] | 2.5 µM | 156 to 158 °C | 
25 | COc1cc(OC)c(/C=C(\C#N)S(=O)(=O)Cc2ccc(OC)c([N+](=O)[O-])c2)c(OC)c1 [Example 34] |  | 184 to 186 °C | 
26 | CCOC(=O)c1c(C)[nH]c(/C=C(\C#N)S(=O)(=O)Cc2ccc(F)cc2)c1C [Example 37, (E)-2-[(4-fluorophenyl)methanesulfonyl]-3-(4-ethoxycarbonyl-3,5-dimethylpyrrol-2-yl)acrylonitrile] | 50 to 100 µM |  | IC50 ([1]; Homo sapiens, K562, 96 h): 50 to 100 µM
27 | CSc1ccc(/C=C(\C#N)S(=O)(=O)Cc2ccc(Cl)cc2)cc1 [Example 43] |  |  | IC50 (DU145 (prostate cancer)): > 100 µM; IC50 [1]: 50 to 100 µM
28 | COc1cc(OC)c(/C=C(\C(N)=O)S(=O)(=O)Cc2ccc(Cl)cc2Cl)c(OC)c1 [Example 152] |  | 201 to 204 °C | 
29 | CCOc1ccc(/C=C(\C(N)=O)S(=O)(=O)Cc2ccc(Cl)cc2Cl)cc1OC [Example 168, (E)-2-[(2,4-dichlorophenyl)methanesulfonyl]-3-(4-ethoxy-3-methoxyphenyl)acrylamide] |  | 245 to 247 °C | 
30 | COc1ccc(CS(=O)(=O)/C(=C/c2c(OC)cc(OC)cc2OC)C(N)=O)cc1 [Example 171] |  | 168 to 171 °C | 
31 | COc1cc(OC)c(/C=C(\C(N)=O)S(=O)(=O)c2ccccc2)c(OC)c1 [Example 178] |  | 164 to 167 °C | 
32 | COc1ccc(S(=O)(=O)/C(=C/c2ccc(F)cc2)C(N)=O)cc1 [Example 181] |  | 154 to 156 °C | 
33 | COc1ccc(S(=O)(=O)/C(=C/c2c(OC)cc(OC)cc2OC)C(N)=O)cc1 [Example 182] |  | 172 to 175 °C | 
34 | COc1cc(OC)c(/C=C(\[N+](=O)[O-])S(=O)(=O)c2ccc(C)cc2)c(OC)c1 [Example 185] | 50 µM | 192 to 194 °C | 
35 | COc1cc(OC)c(/C=C(\[N+](=O)[O-])S(=O)(=O)c2ccc(Br)cc2)c(OC)c1 [Example 186] | 25 µM | 184 to 186 °C | 
36 | COc1cc(OC)c(/C=C(\[N+](=O)[O-])S(=O)(=O)c2ccccc2)c(OC)c1 [Example 187] |  | 176 to 180 °C | 
37 | COc1ccc(NS(=O)(=O)/C(C#N)=C/c2c(OC)cccc2OC)cc1 [Example 193] |  | 154 to 156 °C | 
38 | COc1ccc(NS(=O)(=O)/C(C#N)=C/c2cc(OC)cc(OC)c2)cc1 [Example 201] | > 100 µM | 167 to 168 °C | 
39 | COc1ccc(NS(=O)(=O)/C(C#N)=C/c2ccc(C)c(C)c2)cc1 [Example 203] | > 100 µM | 152 to 154 °C | 
40 | COc1ccc(NS(=O)(=O)/C(C#N)=C/c2cc(Cl)cc(Cl)c2Cl)cc1 [Example 294] |  | 180 to 181 °C | IC50 ([1]; Homo sapiens, K562, 96 h): < 1 µM

Now from value to compound, other results behind:

Row | IC50 (DU145 (prostate cancer); Homo sapiens, DU-145, 96 h) | melting point | SMILES | further results
41 | 50 µM |  | COc1ccc(CS(=O)(=O)/C(C#N)=C/c2ccc(F)c([N+](=O)[O-])c2)cc1 [Example 3] | 
42 |  | 174 to 176 °C | COc1ccc(CS(=O)(=O)/C(C#N)=C/c2ccc([N+](=O)[O-])cc2)cc1 [Example 10] | 
43 |  | 138 to 142 °C | N#C/C(=C\c1ccc([N+](=O)[O-])cc1)S(=O)(=O)Cc1ccc(Br)cc1 [Example 31] | 
44 |  | 193 to 196 °C | Cc1ccc(/C=C(\C(N)=O)S(=O)(=O)Cc2ccc(Cl)cc2Cl)cc1C [Example 151] | 
45 |  | 195 to 196 °C | NC(=O)/C(=C\c1ccc(Br)cc1)S(=O)(=O)Cc1ccc(Cl)cc1Cl [Example 153] | 
46 |  | 185 to 189 °C | COc1ccc(/C=C(\C(N)=O)S(=O)(=O)Cc2ccc(Cl)cc2Cl)cc1O [Example 154, (E)-2-[(2,4-dichlorophenyl)methanesulfonyl]-3-(3-hydroxy-4-methoxyphenyl)acrylamide] | 
47 |  | 188 to 193 °C | NC(=O)/C(=C\c1cccc(Cl)c1Cl)S(=O)(=O)Cc1ccc(F)cc1 [Example 155] | 
48 |  | 158 to 164 °C | NC(=O)/C(=C\c1ccc(Cl)cc1Cl)S(=O)(=O)Cc1ccccc1Cl [Example 156] | 
49 |  | 79 to 82 °C | Cc1ccc(C)c(/C=C(\C(N)=O)S(=O)(=O)Cc2ccc(Cl)cc2)c1 [Example 157] | 
50 |  | 195 to 197 °C | CCOc1ccc(/C=C(\C(N)=O)S(=O)(=O)Cc2ccc(Cl)cc2)cc1OC [Example 158, (E)-2-[(4-chlorophenyl)methanesulfonyl]-3-(4-ethoxy-3-methoxyphenyl)acrylamide] | 
51 |  | 235 to 240 °C | CCOc1ccc(/C=C(\C(N)=O)S(=O)(=O)Cc2ccc([N+](=O)[O-])cc2)cc1OC [Example 159, (E)-2-[(4-nitrophenyl)methanesulfonyl]-3-(4-ethoxy-3-methoxyphenyl)acrylamide] | 
52 |  | 172 to 176 °C | Cc1ccc(C)c(/C=C(\C(N)=O)S(=O)(=O)Cc2ccc(F)cc2)c1 [Example 160] | 
53 |  | 199 to 200 °C | NC(=O)/C(=C\c1ccc(Br)cc1)S(=O)(=O)Cc1ccc(F)cc1 [Example 161] | 
54 |  | 168 to 170 °C | NC(=O)/C(=C\c1cc(F)c(F)cc1F)S(=O)(=O)Cc1ccc(F)cc1 [Example 162] | 
55 |  | 172 to 176 °C | Cc1cc(C)cc(/C=C(\C(N)=O)S(=O)(=O)Cc2ccc(Cl)cc2)c1 [Example 163] | 
56 |  | 197 to 202 °C | CCOc1ccc(/C=C(\C(N)=O)S(=O)(=O)Cc2ccc(F)cc2)cc1OC [Example 164, (E)-2-[(4-fluorophenyl)methanesulfonyl]-3-(4-ethoxy-3-methoxyphenyl)acrylamide] | 
57 |  | 206 to 210 °C | NC(=O)/C(=C\c1ccc(Cl)cc1Cl)S(=O)(=O)Cc1ccc(Cl)cc1 [Example 165] | 
58 |  | 194 to 199 °C | NC(=O)/C(=C\c1ccc(F)cc1Cl)S(=O)(=O)Cc1ccc(Cl)cc1 [Example 166] | 
59 |  | 207 to 210 °C | CC(=O)c1ccc(/C=C(\C(N)=O)S(=O)(=O)Cc2ccc(Cl)cc2Cl)cc1 [Example 167] | 
60 |  | 200 to 202 °C | NC(=O)/C(=C\c1cccc(Cl)c1Cl)S(=O)(=O)Cc1ccc([N+](=O)[O-])cc1 [Example 169] | 
